# Measured values from US10799605B2 (3B PHARMACEUTICALS GMBH, priority 2014, dated 2020).
# Read-outs that look alike come from different tables or passages of the source.
# What was measured:
# B2 (h) = B2 (h) (Homo sapiens (Human), UniProt P30411); test: ExpresSProfile: bradykinin receptor 2, agonist radioligand; format: binding; conditions: Reference Compound
# CXCR2 (IL-8B) (h) = CXCR2 (IL-8B) (h) (Homo sapiens (Human), UniProt P25025); test: ExpresSProfile: C-X-C chemokine receptor type 2, agonist radioligand; format: binding; conditions: Reference Compound
# beta 1 (h) = beta 1 (h) (Homo sapiens (Human), UniProt P08588); test: ExpresSProfile: beta1 adrenergic receptor, agonist radioligand; format: binding; conditions: Reference Compound
# GABA (non-selective) = test: ExpresSProfile: GABA, agonist radioligand; format: binding; conditions: Reference Compound
# BZD (central) = test: ExpresSProfile: benzodiazepine, agonist radioligand; format: binding; conditions: Reference Compound
# B1R = B1R (Homo sapiens (Human), UniProt P46663); test: Radioligand binding assay B1R (bradykinin B1 receptor); conditions: read-out: Inhibition [at 100 nM, %]
# Description: (§1) In order to determine the binding affinity of compounds comprising a radiolabel for B1R, a radioligand binding assay was carried out. A radioligand is a radioactive biochemical substance that is used for diagnosis or for research-oriented study of cellular receptor systems of the body. In […] systems it is often used to quantify the binding of a test molecule to the binding site of radioligand. The higher the affinity of the molecule, the more radioligand is displaced from the binding site. The amount of bound radioligand can be measured by scintillation counting and thereby quantified. This assay is commonly used to calculate binding constants of molecules to receptors.
# The B1R radioligand binding assay was performed by Cerep (Celle l'Evescault, France; Catalog reference 1189) according to (Jones et al., Eur J Pharmacol, 1999, 374, 423-433). B1R was prepared from CHO cells recombinantly expressing the human receptor and incubated with 0.35 nM [^3H]desArg^10-KD and serial dilutions of the test compounds. After 60 min incubation at 4° C. and washing to remove unbound ligand, bound radioactivity was measured by scintillation counting.
# AT1 (h) = AT1 (h) (Homo sapiens (Human), UniProt P30556); test: ExpresSProfile: angiotensin receptor 1, antagonist radioligand; format: binding; conditions: Reference Compound
# D2S (h) = D2S (h) (Homo sapiens (Human), UniProt P14416); test: ExpresSProfile: dopamine receptor 2S, antagonist radioligand; format: binding
# [1] = Plasma stability assay, human plasma; format: in vitro ADME
# Description: (§2) The plasma stability assay was performed to measure the degradation of compounds of the present invention in plasma. This is an important characteristic of a compound as compounds, with the exception of pro-drugs, which rapidly degrade in plasma generally show poor in vivo efficacy.
# (§3) The plasma was spiked with a 10 mM analyte solution in dimethyl sulfoxide to a final concentration of 10 μM, vortexed, and aliquotted to 50 μl samples. Two aliquots were stored at −20° C. until further treatment. Another two aliquots were incubated using an Eppendorf Thermomixer at 37° C. for 1, 4, and 24 hours. Sample clean-up was performed using a protein precipitation plate (Phenomenex Strata Impact, 64722-1-324-1) and using acetonitrile as precipitation agent. […] An aliquot of 10 μl was diluted with 90 μl 0.1% aqueous trifluoroacetic acid solution. The determination of the analyte in the clean sample solutions was performed on a Thermo TSQ Quantum Ultra triple quadrupole mass spectrometer equipped with a thermo Surveyor HPLC. The chromatographic separation was carried out on a Phenomenex Kinetex XB-C18 HPLC column (50×2 mm, […] particle size) with gradient elution using a mixture of 0.01% trifluoroacetic acid and 0.05% formic acid in water as eluent A and methanol as eluent B (20% B to 100% in 8 min, 400 μl/min, 40° C.). For mass spectrometric detection the selected reaction monitoring (SRM) was used.
# (§4) Quantitation was performed by external matrix calibration using an internal standard.
# NTR1 [2] = molecular target: T1, NTR1 (Homo sapiens (Human), UniProt P30989); test: Functional Ca2+ mobilisation assay (example part II); format: cell-based; conditions: antagonist assay
# Outline: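 HT29 or NTR1-expressing HEK293 cells loaded with Ca5 dye for 1 h at 37 °C in buffer at pH 7.4, and fluorescence recorded for about 90 s after addition. EC50 derived from agonist serial dilutions; IC50 from antagonists pre-incubated 30 min before an EC80 agonist challenge.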
# [3] = Plasma stability assay, mouse plasma; format: in vitro ADME
# Description: as §2, §3, §4
# NTR1 [4] = molecular target: T1, NTR1; test: Radioligand binding assay NTR1 (example part II); conditions: 0.05 nM 125I-(Tyr3-neurotensin), 60 min at 4° C.; read-out: IC50 [nM] RLB
# Description: as §1, with “NTR1,” for “B1R,”
# The NTR1 radioligand binding assay was performed by Cerep (Celle l'Evescault, France; Catalog reference 0109) according to Vita et al., FEBS Lett., 1993, 317, 139-142. NTR1 was prepared from CHO cells recombinantly expressing the human receptor and incubated with 0.05 nM ^125I-(Tyr^3-neurotensin) and serial dilutions of the test compounds. […] The result for each test compound is expressed as IC50 concentration and provides a measure for the affinity of the test compound for NTR1.
# alpha 2 (non-selective) = test: ExpresSProfile: alpha2 adrenergic receptor, antagonist radioligand; format: binding; conditions: Reference Compound
# HT29 cells = conditions: 48 h
# NTR1 [5] = molecular target: T1, NTR1; test: Functional Ca2+ mobilisation assay (example part I); format: cell-based
# From the text: Ca^2+ ions are usually kept at nanomolar levels in the cytosol of cells, and act in a number of signal transduction pathways as second messengers. […] Changes in calcium ion concentration in standard assay protocols can be readily detected with fluorescent dyes that emit light when changes in intracellular Ca^2+ ion concentration occur. Given the transient nature of these responses, they are often read with instrumentation that has ‘inject and read’ capability.
# HT29 or NTR1-expressing HEK293 cells were trypsinized and seeded into black flat clear-bottom 96-well plates (Corning, Amsterdam, The Netherlands) at […] cells per well. After 24 h incubation at 37° C. and 5% CO2, cells were washed twice with wash buffer (130 mM NaCl, 5 mM KCl, 10 mM Hepes, 2 mM CaCl2, 10 mM Glucose, pH 7.4) and loaded with 100 μl of Ca5 dye (Molecular Devices, Biberach, Germany) for 1 h at 37° C. and 5% CO2. For agonist assays, serial dilutions of agonistic substances were added to the cells loaded with dye and the change of the fluorescent signal was recorded continually for approx. 90 s using a FlexStation II (Molecular Devices, Biberach, Germany). Addition of wash buffer served as a control. Thus, EC50 concentrations for each conjugate were computed and provided a measure for the potency of the substance. For antagonist assays, cells loaded with 100 μl of Ca5-dye were pre-incubated with serial dilutions of antagonistic substances for 30 min, before the EC80-concentration of agonist was added to the cells and the change of the fluorescent signal was recorded continually for approx. 90 s. Thus, IC50 concentrations were computed for each conjugate and provided a measure for the inhibitory activity of the conjugates at the NTR1.
# CB1 (h) = CB1 (h) (Homo sapiens (Human), UniProt P21554); test: ExpresSProfile: cannabinoid receptor 1, agonist radioligand; format: binding; conditions: Reference Compound
# D1 (h) = D1 (h) (Homo sapiens (Human), UniProt P21728); test: ExpresSProfile: dopamine receptor 1, antagonist radioligand; format: binding; conditions: Reference Compound
# Sequence of D1 (h) (P21728 whole entry): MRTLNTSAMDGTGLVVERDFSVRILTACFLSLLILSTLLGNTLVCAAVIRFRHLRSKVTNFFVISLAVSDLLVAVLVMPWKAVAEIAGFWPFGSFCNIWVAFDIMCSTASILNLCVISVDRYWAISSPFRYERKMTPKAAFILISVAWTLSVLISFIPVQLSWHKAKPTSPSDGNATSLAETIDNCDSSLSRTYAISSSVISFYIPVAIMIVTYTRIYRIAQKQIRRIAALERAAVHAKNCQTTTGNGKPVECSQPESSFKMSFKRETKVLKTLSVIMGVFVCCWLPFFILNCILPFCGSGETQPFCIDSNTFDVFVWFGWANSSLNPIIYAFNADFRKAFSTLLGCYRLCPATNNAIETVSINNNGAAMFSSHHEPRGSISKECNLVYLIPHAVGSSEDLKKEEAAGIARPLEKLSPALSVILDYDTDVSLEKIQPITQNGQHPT
# T1 sequence (P30989 whole entry): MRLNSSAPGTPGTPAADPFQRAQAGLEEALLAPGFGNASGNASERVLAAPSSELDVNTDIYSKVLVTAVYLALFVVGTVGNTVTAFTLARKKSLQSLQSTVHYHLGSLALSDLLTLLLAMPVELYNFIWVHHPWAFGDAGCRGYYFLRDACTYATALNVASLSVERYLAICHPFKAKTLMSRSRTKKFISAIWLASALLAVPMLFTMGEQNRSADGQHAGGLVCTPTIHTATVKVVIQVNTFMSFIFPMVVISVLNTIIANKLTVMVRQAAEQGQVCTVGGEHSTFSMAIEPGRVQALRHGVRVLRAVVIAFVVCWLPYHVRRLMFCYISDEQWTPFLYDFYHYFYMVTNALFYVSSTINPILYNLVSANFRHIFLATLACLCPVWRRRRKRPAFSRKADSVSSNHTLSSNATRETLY
# Sequence of B1R (P46663 whole entry): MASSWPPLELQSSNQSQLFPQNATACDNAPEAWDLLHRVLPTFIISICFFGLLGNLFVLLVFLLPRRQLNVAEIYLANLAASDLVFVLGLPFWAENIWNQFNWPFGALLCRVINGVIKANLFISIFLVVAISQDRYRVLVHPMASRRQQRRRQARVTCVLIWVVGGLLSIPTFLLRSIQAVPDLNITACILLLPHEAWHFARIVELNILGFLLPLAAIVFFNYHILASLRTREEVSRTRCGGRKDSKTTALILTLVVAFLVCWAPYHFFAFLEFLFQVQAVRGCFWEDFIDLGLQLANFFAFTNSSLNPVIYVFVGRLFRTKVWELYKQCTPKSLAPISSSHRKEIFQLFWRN
# Sequence of CB1 (h) (P21554 whole entry): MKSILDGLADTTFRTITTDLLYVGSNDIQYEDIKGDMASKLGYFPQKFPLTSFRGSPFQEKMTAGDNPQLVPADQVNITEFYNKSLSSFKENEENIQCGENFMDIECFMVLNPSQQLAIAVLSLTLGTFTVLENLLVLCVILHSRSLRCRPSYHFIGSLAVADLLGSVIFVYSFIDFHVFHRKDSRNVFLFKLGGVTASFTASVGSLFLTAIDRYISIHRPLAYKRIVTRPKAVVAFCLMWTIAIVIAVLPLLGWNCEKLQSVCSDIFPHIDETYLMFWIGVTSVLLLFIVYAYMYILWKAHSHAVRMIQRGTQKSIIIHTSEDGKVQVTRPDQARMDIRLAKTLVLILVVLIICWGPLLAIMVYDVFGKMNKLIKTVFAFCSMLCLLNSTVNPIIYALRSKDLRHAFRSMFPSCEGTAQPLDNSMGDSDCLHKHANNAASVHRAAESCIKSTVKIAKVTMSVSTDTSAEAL
# Sequence of D2S (h) (P14416 other isoform, or with tags, fused parts or gaps): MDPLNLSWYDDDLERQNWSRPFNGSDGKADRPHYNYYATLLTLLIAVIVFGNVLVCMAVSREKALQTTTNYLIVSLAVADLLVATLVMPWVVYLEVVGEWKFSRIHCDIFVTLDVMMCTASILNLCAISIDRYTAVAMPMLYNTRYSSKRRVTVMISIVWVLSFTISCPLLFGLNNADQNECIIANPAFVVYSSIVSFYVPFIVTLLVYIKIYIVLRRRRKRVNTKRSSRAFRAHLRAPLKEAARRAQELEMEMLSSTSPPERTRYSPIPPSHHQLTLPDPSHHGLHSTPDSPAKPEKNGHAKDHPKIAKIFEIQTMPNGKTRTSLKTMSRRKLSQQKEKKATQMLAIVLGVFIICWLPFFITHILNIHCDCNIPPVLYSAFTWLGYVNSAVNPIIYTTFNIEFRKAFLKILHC
# Sequence of CXCR2 (IL-8B) (h) (P25025 whole entry): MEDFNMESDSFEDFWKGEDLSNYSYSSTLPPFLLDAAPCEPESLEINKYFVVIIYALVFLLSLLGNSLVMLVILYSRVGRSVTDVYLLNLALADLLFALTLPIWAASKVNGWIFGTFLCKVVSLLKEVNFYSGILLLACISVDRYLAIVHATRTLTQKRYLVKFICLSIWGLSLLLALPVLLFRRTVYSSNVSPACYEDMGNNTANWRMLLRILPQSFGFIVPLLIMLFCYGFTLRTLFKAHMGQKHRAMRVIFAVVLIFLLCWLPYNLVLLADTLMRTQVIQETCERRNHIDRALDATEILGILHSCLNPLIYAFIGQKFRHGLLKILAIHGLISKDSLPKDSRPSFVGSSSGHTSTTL
# Sequence of beta 1 (h) (P08588 whole entry): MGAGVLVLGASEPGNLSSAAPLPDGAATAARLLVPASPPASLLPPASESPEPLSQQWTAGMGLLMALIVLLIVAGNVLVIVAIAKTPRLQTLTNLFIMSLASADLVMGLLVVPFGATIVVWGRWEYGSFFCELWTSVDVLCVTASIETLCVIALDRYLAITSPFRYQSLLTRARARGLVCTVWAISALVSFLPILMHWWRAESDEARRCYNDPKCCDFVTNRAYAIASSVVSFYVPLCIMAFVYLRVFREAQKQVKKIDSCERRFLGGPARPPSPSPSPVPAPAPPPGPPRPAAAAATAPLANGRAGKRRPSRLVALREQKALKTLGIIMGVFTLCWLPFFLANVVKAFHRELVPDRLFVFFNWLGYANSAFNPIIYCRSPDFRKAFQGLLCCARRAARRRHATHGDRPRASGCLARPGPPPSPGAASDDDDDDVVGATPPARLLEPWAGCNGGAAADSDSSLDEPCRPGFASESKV
# Sequence of AT1 (h) (P30556 whole entry): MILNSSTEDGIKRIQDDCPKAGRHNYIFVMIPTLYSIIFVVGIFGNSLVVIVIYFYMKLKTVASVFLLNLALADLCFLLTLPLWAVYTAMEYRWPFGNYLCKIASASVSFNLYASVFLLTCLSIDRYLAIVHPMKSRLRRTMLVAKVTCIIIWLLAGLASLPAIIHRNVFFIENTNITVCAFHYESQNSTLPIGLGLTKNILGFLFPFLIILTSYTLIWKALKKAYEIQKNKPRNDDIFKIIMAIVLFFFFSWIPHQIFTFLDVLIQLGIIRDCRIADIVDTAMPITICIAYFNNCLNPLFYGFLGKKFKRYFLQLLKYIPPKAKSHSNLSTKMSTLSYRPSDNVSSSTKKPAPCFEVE
# Sequence of B2 (h) (P30411 whole entry): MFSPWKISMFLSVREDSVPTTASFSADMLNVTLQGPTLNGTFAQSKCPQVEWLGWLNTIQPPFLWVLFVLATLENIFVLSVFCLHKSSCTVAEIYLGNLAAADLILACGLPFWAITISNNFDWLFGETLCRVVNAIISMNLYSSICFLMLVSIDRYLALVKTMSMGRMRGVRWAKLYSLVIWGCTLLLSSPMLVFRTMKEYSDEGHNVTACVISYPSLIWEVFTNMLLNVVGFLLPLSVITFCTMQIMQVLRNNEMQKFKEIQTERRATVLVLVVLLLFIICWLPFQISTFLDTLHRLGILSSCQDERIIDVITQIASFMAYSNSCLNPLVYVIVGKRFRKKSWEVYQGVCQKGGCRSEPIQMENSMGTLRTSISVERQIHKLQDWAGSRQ
compound,measurement,setting,value
N=C(N)NCCC[C@@H](N)C(=O)N[C@@H](CCCNC(=N)N)C(=O)N1CCC[C@H]1C(=O)N1C[C@H](O)C[C@H]1C(=O)NCC(=O)N[C@@H](Cc1ccccc1)C(=O)N[C@@H](CO)C(=O)N[C@H](Cc1ccccc1)C(=O)N[C@@H](Cc1ccccc1)C(=O)N[C@@H](CCCNC(=N)N)C(=O)O [NPC 567],nH Ref,B2 (h),0.9
IL-8,nH Ref,CXCR2 (IL-8B) (h),1.4
CC(C)NCC(O)COc1ccc(CC(N)=O)cc1 (stereo not shown) [atenolol],nH Ref,beta 1 (h),0.9
"NCCCC(=O)O [GABA, γ-aminobutyric acid, reference compound]",nH Ref,GABA (non-selective),0.8
CN1C(=O)CN=C(c2ccccc2)c2cc(Cl)ccc21 [diazepam],nH Ref,BZD (central),1.1
"CC[C@H](C)[C@H](NC(=O)[C@@H](Cc1ccc2ccccc2c1)NC(=O)[C@H](CO)NC(=O)[C@](C)(Cc1ccccc1)NC(=O)CNC(=O)[C@@H]1CCCN1C(=O)[C@@H]1C[C@@H]2CCCC[C@@H]2N1C(=O)[C@H](CCCNC(=N)N)NC(=O)[C@H](CCCN)NC(=O)CCC(=O)NCCCOCCOCCOCCCNC(=O)[C@H](CCCCNC(=O)CN1CCN(CC(=O)O)CCN(CC(=O)O)CCN(CC(=O)O)CC1)NC(=O)CCC(=O)NCCCOCCOCCOCCCNC(=O)CCCC(=O)N(C)CCCN(C)CCCN(C)C(=O)c1ccc(-n2nc(C(=O)NC3(C(=O)O)C4CC5CC(C4)CC3C5)cc2-c2c(OC)cccc2OC)c(C(C)C)c1)C(=O)O (stereo partly drawn) [(27), 1206-Glutar-Ttds-Lys(DOTA)-Ttds-GABA-Orn-Arg-Oic-Pro-Gly-Amf-Ser-nal-Ile-OH]",inhibition at 0.1 µM,B1R,17%
CNCC(=O)N[C@@H](CCCN=C(N)N)C(=O)N[C@H](C(=O)N[C@@H](Cc1ccc(O)cc1)C(=O)N[C@H](C(=O)N[C@@H](Cc1cnc[nH]1)C(=O)N1CCC[C@H]1C(=O)N[C@@H](C)C(=O)O)C(C)C)C(C)C [saralasin],nH Ref,AT1 (h),0.6
(+)butaclamol,nH Ref,D2S (h),1.0
"COc1cccc(OC)c1-c1cc(C(=O)NC2(C(=O)O)C3CC4CC(C3)CC2C4)nn1-c1ccc(C(=O)N(CCCNC(=O)CN2CCN(CC(=O)O)CCN(CC(=O)O)CCN(CC(=O)O)CC2)CCCN(C)C)cc1C(C)C (stereo not shown) [(Va), 2-{[1-{4-[(3-DOTA-amino-propyl)-(3-dimethylamino-propyl)-carbamoyl]-2-isopropyl-phenyl}-5-(2,6-dimethoxy-phenyl)-1H-pyrazole-3-carbonyl]-amino}-adamantane-2-carboxylic acid]",stability in human plasma,[1],highly stable
same,"% remaining after 24 h incubation, Human plasma","[1]; 10 μM, 37° C., 24 h",>70%
same,IC50,NTR1 [2],12.6 nM
same,stability in mouse plasma,[3],highly stable
same,"% remaining after 24 h incubation, Mouse plasma","[3]; 10 μM, 37° C., 24 h",>60%
same,IC50,NTR1 [4],3.4 nM
COC(=O)[C@@H]1[C@H]2C[C@H]3c4[nH]c5ccccc5c4CCN3C[C@@H]2CC[C@@H]1O [yohimbine],nH Ref,alpha 2 (non-selective),0.7
"CC(=O)O[C@H]1C(=O)[C@@]2(C)[C@H]([C@H](OC(=O)c3ccccc3)[C@]3(O)C[C@H](OC(=O)[C@H](O)[C@@H](NC(=O)c4ccccc4)c4ccccc4)C(C)=C1C3(C)C)[C@]1(OC(C)=O)CO[C@@H]1C[C@@H]2O [Paclitaxel, reference compound]",Concentration [μM] at 20% cytotoxicity,HT29 cells; human,70 µM
"COc1cccc(OC)c1-c1cc(C(=O)NC2(C(=O)O)C3CC4CC(C3)CC2C4)nn1-c1ccc(C(=O)N(C)CCCN(C)CCCN(C)C(=O)CCCC(=O)NCCCCC(NC(=O)CCC(=O)NCCCOCCOCCOCCCNC(=O)C(CCCCNC(=O)CCC(=O)O[C@@H](C(=O)O[C@H]2C[C@@]3(O)[C@@H](OC(=O)c4ccccc4)[C@@H]4[C@]5(OC(C)=O)CO[C@@H]5C[C@H](O)[C@@]4(C)C(=O)[C@H](OC(C)=O)C(=C2C)C3(C)C)[C@@H](NC(=O)c2ccccc2)c2ccccc2)NC(=O)CCC(=O)NCCCOCCOCCOCCCNC(=O)CCCC(=O)N(C)CCCN(C)CCCN(C)C(=O)c2ccc(-n3nc(C(=O)NC4(C(=O)O)C5CC6CC(C5)CC4C6)cc3-c3c(OC)cccc3OC)c(C(C)C)c2)C(N)=O)cc1C(C)C (stereo partly shown) [(20), 1206-Glutar-Ttds-Lys(Taxol-Succinyl)-Ttds-(ε-Lys-NH2)-Glutar-1206]",EC50,NTR1 [5],> 50 µM
same,IC50,NTR1 [5],32 nM
same,Concentration [μM] at 20% cytotoxicity,"HT29 cells; HT29 cells, LDH in supernatant",18 µM
"COc1cccc(OC)c1-c1cc(C(=O)NC2(C(=O)O)C3CC4CC(C3)CC2C4)nn1-c1ccc(C(=O)N(C)CCCN(C)CCCN(C)C(=O)CCCC(=O)NCCCOCCOCCOCCCNC(=O)CCC(=O)N[C@@H](CCCCNC(=O)CN2CCN(CC(=O)O)CCN(CC(=O)O)CCN(CC(=O)O)CC2)C(=O)NCCCOCCOCCOCCCNC(=O)CCC(=O)N[C@@H](CCCCN)C(=O)N[C@@H](CCCNC(=N)N)C(=O)N2CCC[C@H]2C(=O)N2C[C@H](O)C[C@H]2C(=O)NCC(=O)N[C@@H](CC2CCCCC2)C(=O)N[C@@H](CO)C(=O)N2CCC[C@H]2C(=O)N[C@@H](CC(C)C)C(=O)O)cc1C(C)C (stereo partly drawn) [(26), 1206-Glutar-Ttds-Lys(DOTA)-Ttds-GABA-Lys-Arg-Pro-Hyp-Gly-Cha-Ser-Pro-Leu-OH]",inhibition at 0.1 µM,B1R,20%
CCCCCCC(C)(C)c1ccc([C@@H]2C[C@H](O)CC[C@H]2CCCO)c(O)c1 [CP 55940],nH Ref,CB1 (h),0.8
CN1CCc2cc(Cl)c(O)cc2[C@@H](c2ccccc2)C1 [SCH 23390],nH Ref,D1 (h),0.9
